The results in this text go back to patent US20230407243A1, “GENETIC PLATFORM TO INVESTIGATE THE FUNCTIONS OF BACTERIAL DRUG EFFLUX PUMPS” (priority 2022, published 2023).

What all share (assay type): cell-based, Escherichia coli
Experiment [1] relates to EKO-35 araC::acrBD408A. Put plainly: MIC susceptibility profiling, efflux platform. The following applies: for MIC: Escherichia coli, Table 13B, non-porinated, technical duplicate, read-out: Minimum Inhibitory Concentration, EKO-35 araC::acrBD408A. As for the experimental part: (§1) Single colonies were used to inoculate 3 mL of LB followed by incubation at 37° C. for 18 h with aeration at 220 rpm. The bacterial cells were harvested by centrifugation and resuspended in phosphate buffered saline (PBS) ([pH 7.4], 137 mM NaCl (Bioshop), 2.7 mM KCl (Bioshop), 10 mM Na2PO4 (Bioshop) and 1.8 mM K2PO4) to an OD600 nm˜1.0, followed by 1/2000 dilution into MHB II.
(§2) To a 384-well microtiter plate (Corning, untreated polystyrene), 500 nL of compound was dispensed, in duplicate, and serially titrated 2-fold using an Echo 550 acoustic liquid dispenser (Labcyte Inc.). […] As a solvent control, 500 nL of DMSO was applied to wells that contained no compound. Using a multichannel pipette, 50 μL of the prepared bacterial inoculum was applied to each well. To enable background correction post-incubation, the OD600 nm was measured (Biotek Synergy Neo2 microplate reader) prior to incubation. The plates were incubated at 37° C. with aeration at 900 rpm for 18 h. The plates were equilibrated to room temperature and the OD600 nm measured using a BioTek Synergy Neo2 microplate reader. Data was analyzed in both Prism (GraphPad, Version 9.2.0) and Microsoft Excel (Version 16.53). Raw data were input into Microsoft Excel and the pre-incubation OD600 nm measurements were subtracted from the post-incubation OD600 nm measurements. These corrected measurements were input into Prism 9 as a grouped analysis. […] All other MIC values were adjusted accordingly and visualized using the single-color scale grouped heat map function. Identification of compound chemical properties was achieved using DataWarrior (Version 5.5.0). Using PubChem, the SMILES chemical notation for each compound was obtained and compiled in Microsoft Excel. The resulting spreadsheet was input into DataWarrior and properties were calculated from the compound chemical structures.

Experiment [2] has as its system EKO-35 araC::acrD. Put plainly: MIC susceptibility profiling, efflux platform. The following applies: for MIC: Escherichia coli, Table 13A, non-porinated, technical duplicate, read-out: Minimum Inhibitory Concentration, EKO-35 araC::acrD. As for the experimental part:
as §1, §2

Experiment [3] deals with EKO-35 araC::acrEF. Description: MIC susceptibility profiling, efflux platform. The following applies: for MIC: Escherichia coli, Table 13A, non-porinated, technical duplicate, read-out: Minimum Inhibitory Concentration, EKO-35 araC::acrEF. As for the experimental part: as §1, §2
Experiment [4] deals with EKO-35 araC::emrAB. Description: MIC susceptibility profiling, efflux platform. The conditions noted are these: for MIC: Escherichia coli, Table 13B, non-porinated, technical duplicate, read-out: Minimum Inhibitory Concentration, EKO-35 araC::emrAB. As for the experimental part:
as §1, §2

Experiment [5] relates to EKO-35 araC::emrKY. Put plainly: MIC susceptibility profiling, efflux platform. The following applies: for MIC: Escherichia coli, Table 13B, non-porinated, technical duplicate, read-out: Minimum Inhibitory Concentration, EKO-35 araC::emrKY. As to the method: as §1, §2
The test system of experiment [6] is EKO-35 araC::macAB. Description: MIC susceptibility profiling, efflux platform. The following applies: for MIC: Escherichia coli, Table 13B, non-porinated, technical duplicate, read-out: Minimum Inhibitory Concentration, EKO-35 araC::macAB. As to the method: as §1, §2
Experiment [7] relates to EKO-35 araC::mdtBC. Put plainly: MIC susceptibility profiling, efflux platform. The following applies: for MIC: Escherichia coli, Table 13B, non-porinated, technical duplicate, read-out: Minimum Inhibitory Concentration, EKO-35 araC::mdtBC. As to the method:
as §1, §2

For experiment [8], the system named is EKO-35 araC::mexCD (MexCD from P. aeruginosa). Description: MIC susceptibility profiling, efflux platform. The following applies: for MIC: Table 13B, non-porinated, technical duplicate, read-out: Minimum Inhibitory Concentration, EKO-35 araC::mexCD. As for the experimental part:
as §1, §2

In experiment [9] the test system is EKO-35 araC::acrBD408A Pore. Put plainly: MIC susceptibility profiling, porinated efflux platform. The conditions noted are these: for MIC: Escherichia coli, EKO-35 araC::acrBD408A Pore, technical duplicate, read-out: Minimum inhibitory concentration. As for the experimental part: (§3) For genomic integration of the pore, the fhuA ΔC/Δ4L gene and the adjacent gentamicin resistance cassette were amplified using a high-fidelity polymerase and the fhuA_40_Up/gImS_3680_Low primers (Table 4). Integration of the pore gene was performed as described above. The pore gene was introduced into the intergenic region between the glmS and pstS genes, with gene expression under the control of a constitutive promoter (Kearse, M. et al., 2012). Genomic integrations were verified using PCR (Primers: pstS_520_Up/glmS_3680_Low, Table 4). Successful integrations were transformed with pCP20 to remove the gentamicin resistance cassette as previously described. Activity of the pore was confirmed through susceptibility testing with the large antibiotic vancomycin prior to phenotypic profiling and further susceptibility testing.
as §1, §2

The test system of experiment [10] is EKO-35 araC::acrD Pore. The description is as above. The following applies: for MIC: Escherichia coli, Table 14A, porinated, technical duplicate, read-out: Minimum inhibitory concentration, EKO-35 araC::acrD Pore. As to the method: as §3, §1, §2
Experiment [11] concerns EKO-35 araC::acrEF Pore. Described as above. The following applies: for MIC: Escherichia coli, Table 14A, porinated, technical duplicate, read-out: Minimum inhibitory concentration, EKO-35 araC::acrEF Pore. As to the method: as §3, §1, §2
Experiment [12] deals with EKO-35 araC::emrAB Pore. Described as above. The following applies: for MIC: Escherichia coli, EKO-35 araC::emrAB Pore, technical duplicate, read-out: Minimum inhibitory concentration. As to the method:
as §3, §1, §2

The test system of experiment [13] is EKO-35 araC::emrKY Pore. The description is as above. The conditions noted are these: for MIC: Escherichia coli, EKO-35 araC::emrKY Pore, technical duplicate, read-out: Minimum inhibitory concentration. As for the experimental part:
as §3, §1, §2

Experiment [14] deals with EKO-35 araC::macAB Pore. The description is as above. The conditions noted are these: for MIC: Escherichia coli, EKO-35 araC::macAB Pore, technical duplicate, read-out: Minimum inhibitory concentration. As for the experimental part:
as §3, §1, §2

For experiment [15], the system named is EKO-35 araC::mdtBC Pore. The experiment is described as above. The conditions noted are these: for MIC: Escherichia coli, EKO-35 araC::mdtBC Pore, technical duplicate, read-out: Minimum inhibitory concentration. As to the method: as §3, §1, §2
Experiment [16] has as its system EKO-35 araC::mdtEF Pore. Described as above. The conditions noted are these: for MIC: Escherichia coli, Table 14A, porinated, technical duplicate, read-out: Minimum inhibitory concentration, EKO-35 araC::mdtEF Pore. As to the method: as §3, §1, §2
The subject of experiment [17] is EKO-35 araC::mexCD Pore. The experiment is described as above. The conditions noted are these: for MIC: Escherichia coli, EKO-35 araC::mexCD Pore, technical duplicate, read-out: Minimum inhibitory concentration. As for the experimental part:
as §3, §1, §2

Experiment [18] has as its system EKO-35 araC::acrB Pore. The experiment is described as above. The following applies: Escherichia coli; Table 14A; porinated; technical duplicate; read-out: Minimum inhibitory concentration, EKO-35 araC::acrB Pore. As for the experimental part: as §3, §1, §2

For the compound `CC[C@H]1OC(=O)[C@H](C)[C@@H](O[C@H]2C[C@@](C)(OC)[C@@H](O)[C@H](C)O2)[C@H](C)[C@@H](O[C@@H]2O[C@H](C)C[C@H](N(C)C)[C@H]2O)[C@](C)(O)C[C@@H](C)C(=O)[C@H](C)[C@@H](O)[C@]1(C)O` [erythromycin], the MIC stood at 3.12 µg/mL in [1]; 3.12 µg/mL in experiment [2]; 50 µg/mL in experiment [3]; 3.12 µg/mL in [4]; 3.12 µg/mL in experiment [5]; 12.5 µg/mL in [6]. The MIC was 3.12 µg/mL in experiment [7]; 25 µg/mL in experiment [8]; 0.098 µg/mL in experiment [9]; 0.195 µg/mL in experiment [10]; 1.56 µg/mL in experiment [11]; 0.195 µg/mL in experiment [12]. Also, the MIC was found to be 0.195 µg/mL in experiment [13]; 0.781 µg/mL in [14]; 0.195 µg/mL in experiment [15]; 1.56 µg/mL in experiment [16]; 1.56 µg/mL in experiment [17]. Besides, in [6] (MacAB), the “efflux pump-mediated resistance vs EKO-35” value is given as “specific”.
On to `CO[C@H]1/C=C/O[C@@]2(C)Oc3c(C)c(O)c4c(O)c(c(/C=N/N5CCN(C)CC5)c(O)c4c3C2=O)NC(=O)/C(C)=C\C=C\[C@H](C)[C@H](O)[C@@H](C)[C@@H](O)[C@@H](C)[C@H](OC(C)=O)[C@@H]1C` [rifampicin], for which the MIC came to 3.12 µg/mL in experiment [1]; 6.25 µg/mL in experiment [2]; 6.25 µg/mL in [3]; 6.25 µg/mL in [4]; 6.25 µg/mL in experiment [5]; 6.25 µg/mL in [6]. The MIC was 6.25 µg/mL in experiment [7]; 3.12 µg/mL in experiment [8]; 1.56 µg/mL in experiment [18]; 0.195 µg/mL in experiment [9]; 0.391 µg/mL in [10]; 0.391 µg/mL in experiment [11]. The MIC in experiment [12] came to 0.195 µg/mL; in [13] it was 0.391 µg/mL; in experiment [14], 0.391 µg/mL; in experiment [16] it was 0.391 µg/mL; in experiment [17] it was 0.391 µg/mL.
As to `COc1cccc2c1C(=O)c1c(O)c3c(c(O)c1C2=O)C[C@@](O)(C(C)=O)C[C@@H]3O[C@H]1C[C@H](N)[C@H](O)[C@H](C)O1` [daunorubicin], the “Fold change of MICs” value in experiment [1] (EKO-35 araC::acrBD408A compared to EKO-35) is given as 1 fold; in [2] (EKO-35 araC::acrD compared to EKO-35), 2 fold; in experiment [3] (EKO-35 araC::acrEF compared to EKO-35), 64 fold; in [4] (EKO-35 araC::emrAB compared to EKO-35), 1 fold; in experiment [5] (EKO-35 araC::emrKY compared to EKO-35), 1 fold; in experiment [6] (EKO-35 araC::macAB compared to EKO-35), 2 fold. Also, the “Fold change of MICs” value in [7] (EKO-35 araC::mdtBC compared to EKO-35) was 1 fold; in [8] (EKO-35 araC::mexCD compared to EKO-35), 32 fold. In addition, the MIC in experiment [1] was 3.12 µg/mL; in experiment [2] it was 6.25 µg/mL; in experiment [3], 200 µg/mL; in experiment [4], 3.12 µg/mL; in [5] it was 3.12 µg/mL; in experiment [6], 6.25 µg/mL. Also, the MIC in [7] was found to be 1.56 µg/mL; in experiment [8] it was 100 µg/mL; in [9], 0.781 µg/mL; in experiment [10] it was 1.56 µg/mL; in experiment [11] it was 25 µg/mL; in experiment [12] it was 1.56 µg/mL. For the same compound, the MIC in experiment [13] was found to be 0.781 µg/mL; in experiment [14], 1.56 µg/mL; in experiment [15] it was 3.12 µg/mL; in experiment [16], 50 µg/mL; in experiment [17] it was 12.5 µg/mL. For the same compound, the “Fold changes of MICs” value in experiment [9] (EKO-35 araC::acrBD408A Pore compared to EKO-35-Pore) stood at 1 fold; in experiment [10] (EKO-35 araC::acrD Pore compared to EKO-35-Pore), 2 fold; in experiment [11] (EKO-35 araC::acrEF Pore compared to EKO-35-Pore), 32 fold; in [12] (EKO-35 araC::emrAB Pore compared to EKO-35-Pore) it was 2 fold; in experiment [13] (EKO-35 araC::emrKY Pore compared to EKO-35-Pore), 1 fold; in [14] (EKO-35 araC::macAB Pore compared to EKO-35-Pore) it was 2 fold. Moreover, the “Fold changes of MICs” value came out at 4 fold in experiment [15] (EKO-35 araC::mdtBC Pore compared to EKO-35-Pore), 64 fold in [16] (EKO-35 araC::mdtEF Pore compared to EKO-35-Pore) and 16 fold in [17] (EKO-35 araC::mexCD Pore compared to EKO-35-Pore). The “efflux pump-mediated resistance vs EKO-35-Pore” value in experiment [15] (MdtBC with the pore) is “associated with resistance”.
